Assay results: patent US9969699B2, “Cancer cell growth inhibitor, anticancer agent, and method for screening same, as well as novel compound” (Microbial Chemistry Research Foundation, priority 2014, dated 2018)
Where two headings read alike, the source gives them in different places.

How the values were obtained:
[1] = test system: NIH3T3 cells; assay: 2D cell culture step (environment with adhesion scaffold), proliferation of NIH3T3 cells; format: cell-based; conditions: Mus musculus, read-out: IC50 2D cell culture step
Description: Note that, as a negative control, the NIH3T3 cells at 2×10^3 cells/100 were seeded to the same plate in a volume of 100 μL per well and cultured at 37° C. in the presence of 5% CO2 for 3 days without the addition of the test substance.
Note that, Dulbecco's Modified Eagle Medium supplemented with 5% FBS was used for the culture.
A cell proliferation inhibition rate in the 2D cell culture step was calculated according to (Expression 2) below. Cell proliferation inhibition rate(%)=(1−D/E)×100 (Expression 2)
In the (Expression 2), D denotes the number of viable NIH3T3 cells when the test substance was added, and E denotes the number of viable NIH3T3 cells when the test substance was not added.

[2] = test system: NIH3T3/EGFR vIII cells; assay: 3D cell culture step (environment without adhesion scaffold), proliferation of NIH3T3/EGFR vIII cells; format: cell-based, mouse; conditions: for IC50: Mus musculus, 72 h, NIH3T3/EGFR vIII cells, Ultra Low Attachment plate, 3 days, […]-GLO; for cell proliferation inhibiting activity compared with AG1478, Gefitinib and Erlotinib: 3D cell culture step
[3] = Acute toxicity test, oral administration; format: in vivo, ICR mice; conditions: for Organ weight Heart / Organ weight Kidney (Left) / Organ weight Kidney (Right) / Organ weight Liver / Organ weight Lung / Organ weight Spleen / Organ weight Thymus: two weeks after
Excerpt: Two-weeks after the compounds represented by the Structural Formula (1) at the above concentrations were orally administered, the mice were dissected and organs thereof were weighed.
Two-weeks after the compounds represented by the Structural Formula (8) at the above concentrations were orally administered, the mice were dissected and organs thereof were weighed.

[4] = Acute toxicity test, intraperitoneal administration; format: in vivo, ICR mice; conditions: for Organ weight Heart / Organ weight Kidney (Left) / Organ weight Kidney (Right) / Organ weight Liver / Organ weight Lung / Organ weight Spleen / Organ weight Thymus: two weeks after
Excerpt: Two-weeks after the compounds represented by the Structural Formula (1) at the above concentrations were intraperitoneally administered, the mice were dissected and organs thereof were weighed.
Two-weeks after the compounds represented by the Structural Formula (8) at the above concentrations were intraperitoneally administered, the mice were dissected and organs thereof were weighed.

[5] = test system: NIH3T3/EGFR vIII cell-transplanted tumor
[6] = 72 h, NIH3T3 cells, TC-treated plate, 3 days, […]-GLO
[7] = 0.098 mg/kg/0.2 mL, orally once
[8] = 0.098 mg/kg/0.2 mL, intraperitoneally once
[9] = 0.195 mg/kg/0.2 mL, intraperitoneally once
[10] = 0.39 mg/kg/0.2 mL, intraperitoneally once
[11] = 0.78 mg/kg/0.2 mL, intraperitoneally once
[12] = 1.56 mg/kg/0.2 mL, intraperitoneally once
[13] = 3.125 mg/kg/0.2 mL, intraperitoneally once
[14] = 6.25 mg/kg/0.2 mL, intraperitoneally once
[15] = 12.5 mg/kg/0.2 mL, intraperitoneally once
[16] = 25 mg/kg/0.2 mL, intraperitoneally once
[17] = 50 mg/kg/0.4 mL, intraperitoneally once
[18] = 30 mg/kg intraperitoneally once a day, day 1 to day 17

## CC(=O)Nc1ccc(Br)cc1-c1nc2ccccc2[nH]c1=O [Structural Formula (3), N-[4-bromo-2-(3-oxo(4-hydroquinoxalin-2-yl))phenyl]acetamide]
[1]; [6]
  IC50: > 10 µM
[2]
  IC50: 0.5 µM

## O=C(Nc1ccc(Br)cc1-c1nc2ccccc2[nH]c1=O)c1ccccc1 [Structural Formula (15)]
[1]; [6]
  IC50: > 10 µM
[2]
  IC50: > 10 µM

## CNc1ccc(Br)cc1-c1nc2ccccc2[nH]c1=O [Structural Formula (10), 3-[5-bromo-2-(methylamino)phenyl]-2(1H)-quinoxalinone]
[1]; [6]
  IC50: > 10 µM
[2]
  IC50: > 10 µM

## C#Cc1cccc(Nc2ncnc3cc(OCCOC)c(OCCOC)cc23)c1 [Erlotinib, reference compound]
[1]; NIH3T3, 72 h
  IC50: 50 µM

## Cc1ccc(N)c(-c2nc3ccccc3[nH]c2=O)c1 [Structural Formula (4), 3-(2-amino-5-methylphenyl)hydroquinoxalin-2-one]
[1]; [6]
  IC50: > 10 µM
[2]
  IC50: 0.5 µM

## CCOC(=O)Cn1c(=O)c(-c2cc(Br)ccc2N)nc2ccccc21 [Structural Formula (14), ethyl 2-[3-(2-amino-5-bromophenyl)-2-oxohydroquinoxalinyl]acetate]
[1]; [6]
  IC50: > 10 µM
[2]
  IC50: 10 µM

## CCNc1ccccc1-c1nc2ccccc2[nH]c1=O [Structural Formula (11), 3-[2-(ethylamino)phenyl]-2(1H)-quinoxalinone]
[1]; [6]
  IC50: > 10 µM
[2]
  IC50: > 10 µM

## Nc1ccccc1-c1nc2ccccc2[nH]c1=O [Structural Formula (9), 3-(2-aminophenyl)-2(1H)-quinoxalinone]
[1]; [6]
  IC50: > 10 µM
[2]
  IC50: > 10 µM

## O=C(O)CCCC(=O)Nc1ccc(Br)cc1-c1nc2ccccc2[nH]c1=O [Structural Formula (5), 4-{N-[4-bromo-2-(3-oxo(4-hydroquinoxalin-2-yl))phenyl]carbamoyl}butanoic acid]
[1]; [6]
  IC50: > 10 µM
[2]
  IC50: 0.4 µM

## Nc1ccc(Cl)cc1-c1nc2ccccc2[nH]c1=O [Structural Formula (6), 3-(2-amino-5-chlorophenyl)hydroquinoxalin-2-one]
[1]; [6]
  IC50: > 10 µM
[2]
  cell proliferation inhibiting activity compared with AG1478, Gefitinib and Erlotinib: more significant cell proliferation inhibiting activity
  IC50: 0.014 µM

## Cc1ccc2nc(-c3cc(Br)ccc3N)c(=O)[nH]c2c1 [Structural Formula (2), 3-(2-amino-5-bromophenyl)-7-methylhydroquinoxalin-2-one]
[1]; [6]
  IC50: > 10 µM
[2]
  IC50: 0.1 µM

## Cn1c(=O)c(-c2ccccc2N)nc2ccccc21 [Structural Formula (13), 3-(2-aminophenyl)-1-methyl-2(1H)-quinoxalinone]
[1]; [6]
  IC50: > 10 µM
[2]
  IC50: > 10 µM

## O=c1[nH]c2ccccc2nc1-c1ccccc1NCc1ccc(F)cc1 [Structural Formula (12), 3-{2-[(4-fluorobenzyl)amino]phenyl}-2(1H)-quinoxalinone]
[1]; [6]
  IC50: > 10 µM
[2]
  IC50: > 10 µM

## Nc1ccc(I)cc1-c1nc2ccccc2[nH]c1=O [Structural Formula (8), 3-(2-Amino-5-iodophenyl)-2(1H)-quinoxalinone]
[1]; [6]
  IC50: > 10 µM
[3]; [7]
  Organ weight Heart: 124.0 mg
  Organ weight Kidney (Left): 165.0 mg
  Organ weight Kidney (Right): 181.0 mg
  Organ weight Liver: 1322.0 mg
  Organ weight Lung: 182.0 mg
  Organ weight Spleen: 125.0 mg
[3]; 6.25 mg/kg/0.2 mL, orally once
  Organ weight Heart: 119.0 mg
  Organ weight Lung: 171.0 mg
  Organ weight Thymus: 74.0 mg
[3]; 12.5 mg/kg/0.2 mL, orally once
  Organ weight Heart: 111.0 mg
  Organ weight Kidney (Left): 150.0 mg
  Organ weight Kidney (Right): 167.0 mg
  Organ weight Liver: 1375.0 mg
  Organ weight Lung: 159.0 mg
  Organ weight Spleen: 168.0 mg
  Organ weight Thymus: 90.0 mg
[3]; 25 mg/kg/0.2 mL, orally once
  Organ weight Heart: 110.0 mg
  Organ weight Kidney (Left): 140.0 mg
  Organ weight Kidney (Right): 152.0 mg
  Organ weight Liver: 1184.0 mg
  Organ weight Lung: 163.0 mg
  Organ weight Spleen: 92.0 mg
  Organ weight Thymus: 39.0 mg
[3]; 50 mg/kg/0.4 mL, orally once
  Organ weight Heart: 116.0 mg
  Organ weight Kidney (Left): 158.0 mg
  Organ weight Kidney (Right): 175.0 mg
  Organ weight Liver: 1331.0 mg
  Organ weight Lung: 176.0 mg
  Organ weight Spleen: 133.0 mg
  Organ weight Thymus: 87.0 mg
[3]; mouse, in vivo, po
  autopsy findings: slightly lighter livers and slightly heavier spleens were found at some doses
[3]; orally once, any doses (0.098 to 50 mg/kg)
  abnormalities: no abnormalities were found at any doses
[4]; [8]
  Organ weight Heart: 118.0 mg
  Organ weight Kidney (Left): 160.0 mg
  Organ weight Kidney (Right): 172.0 mg
  Organ weight Liver: 1476.0 mg
  Organ weight Lung: 165.0 mg
  Organ weight Spleen: 176.0 mg
  Organ weight Thymus: 59.0 mg
[4]; [9]
  Organ weight Heart: 106.0 mg
  Organ weight Kidney (Left): 174.0 mg
  Organ weight Kidney (Right): 181.0 mg
  Organ weight Liver: 1442.0 mg
  Organ weight Lung: 166.0 mg
  Organ weight Spleen: 98.0 mg
  Organ weight Thymus: 66.0 mg
[4]; [10]
  Organ weight Heart: 108.0 mg
  Organ weight Kidney (Left): 146.0 mg
  Organ weight Kidney (Right): 158.0 mg
  Organ weight Liver: 1234.0 mg
  Organ weight Lung: 151.0 mg
  Organ weight Spleen: 69.0 mg
  Organ weight Thymus: 47.0 mg
[4]; [11]
  Organ weight Heart: 110.0 mg
  Organ weight Kidney (Left): 177.0 mg
  Organ weight Kidney (Right): 181.0 mg
  Organ weight Liver: 1324.0 mg
  Organ weight Lung: 163.0 mg
  Organ weight Spleen: 127.0 mg
  Organ weight Thymus: 60.0 mg
[4]; [12]
  Organ weight Heart: 125.0 mg
  Organ weight Kidney (Left): 161.0 mg
  Organ weight Kidney (Right): 179.0 mg
  Organ weight Liver: 1738.0 mg
  Organ weight Lung: 183.0 mg
  Organ weight Spleen: 158.0 mg
  Organ weight Thymus: 94.0 mg
[4]; [13]
  Organ weight Heart: 120.0 mg
  Organ weight Kidney (Left): 172.0 mg
  Organ weight Kidney (Right): 175.0 mg
  Organ weight Liver: 1710.0 mg
  Organ weight Lung: 165.0 mg
  Organ weight Spleen: 132.0 mg
  Organ weight Thymus: 60.0 mg
[4]; [14]
  Organ weight Heart: 120.0 mg
  Organ weight Kidney (Left): 158.0 mg
  Organ weight Kidney (Right): 178.0 mg
  Organ weight Liver: 1641.0 mg
  Organ weight Lung: 168.0 mg
  Organ weight Spleen: 124.0 mg
  Organ weight Thymus: 53.0 mg
[4]; [15]
  Organ weight Heart: 108.0 mg
  Organ weight Kidney (Left): 150.0 mg
  Organ weight Kidney (Right): 149.0 mg
  Organ weight Liver: 1356.0 mg
  Organ weight Lung: 165.0 mg
  Organ weight Spleen: 111.0 mg
  Organ weight Thymus: 78.0 mg
[4]; [16]
  Organ weight Heart: 108.0 mg
  Organ weight Kidney (Left): 149.0 mg
  Organ weight Kidney (Right): 155.0 mg
  Organ weight Liver: 1564.0 mg
  Organ weight Lung: 155.0 mg
  Organ weight Spleen: 138.0 mg
  Organ weight Thymus: 103.0 mg
[4]; [17]
  Organ weight Heart: 120.0 mg
  Organ weight Kidney (Left): 150.0 mg
  Organ weight Kidney (Right): 152.0 mg
  Organ weight Liver: 1551.0 mg
  Organ weight Lung: 166.0 mg
  Organ weight Spleen: 98.0 mg
  Organ weight Thymus: 66.0 mg
[4]; intraperitoneally once, any doses (0.098 to 50 mg/kg)
  abnormalities: no abnormalities were found at any doses
[4]; mouse, in vivo, ip
  autopsy findings: slightly lighter livers, and slightly lighter or heavier spleens were found at some doses
[5]; 30 mg/kg intraperitoneally once a day, 17 days after transplantation, t<0.05
  tumor weight versus negative control group: significantly different
[5]; [18]
  mouse body weight (weight loss): weight loss was not observed
  toxicity: no toxicity
  tumor proliferation inhibiting activity: exhibited the tumor proliferation inhibiting activity
[5]; 30 mg/kg intraperitoneally vs Gefitinib 100 mg/kg orally
  tumor proliferation inhibiting activity compared with Gefitinib: comparable
[2]
  cell proliferation inhibiting activity compared with AG1478, Gefitinib and Erlotinib: more significant cell proliferation inhibiting activity
  IC50: 0.01 µM

## Nc1ccc(F)cc1-c1nc2ccccc2[nH]c1=O [Structural Formula (7), 3-(2-Amino-5-fluorophenyl)-2(1H)-quinoxalinone]
[1]; [6]
  IC50: > 10 µM
[2]
  IC50: 0.34 µM
